Assay results reported in patent publication US7259004B1, “Endophytic streptomycetes from higher plants with biological activity” (Montana State University, priority 2002, dated 2007).
≈ marks a conversion by molar mass, not a printed value.

How the values were obtained:
[1] = system: Cryptococcus neoformans; assay: microbroth dilution MIC
[2] = system: Candida albicans; assay: microbroth dilution MIC
[3] = system: Aspergillus fumigatus; assay: microbroth dilution MIC
[4] = system: Plasmodium falciparum strain CSC-1 (Honduras); assay: antimalarial assay, 3H-phenylalanine radiobioassay in human red blood cells; conditions: for IC50 Plasmodium falciparum: human red blood cells, 3H-phenylalanine, standard deviation of the mean, three experiments
[5] = system: Human Cervical Cancer Epithelial ME180; assay: CellTiter 96 Aqueous Non-Radioactive Cell Proliferation Assay; format: cell-based; conditions: 48 hours, Table 7
Method: (§1) The munumbicins were then tested against three human cancer cell lines (ATCC) and human primary mammary epithelial cells (HMECs) (Clonetics; Biowhittaker, Walkersville, Md.) using a CellTiter 96® Aqueous Non-Radioactive Cell Proliferation Assay kit from Promega (Madison, Wis.). The cell lines were A-549 (lung epithelial carcinoma, ATCC CCL-185), ME-180 (cervical epithelial epidermoid carcinoma, ATCC HTB-33), and BT-20 (breast epithelial cancer, ATCC HTB-19), and were grown in the media recommended by ATCC. The primary mammary cells were cultured as recommended by the manufacturer in mammary epithelial cell growth media (MEGM®). […] After seeding, the cells were incubated for five hours at 37° C. before addition of the munumbicins. Two-fold serial dilutions of the munumbicins were made in the culture medium, and a volume equal to that of the seeded cells for each dilution was added to three wells of cells. Each plate also contained some wells with cells plus medium only and some wells with medium only. […] The A-549 and ME-180 cells were incubated for 48 hours. […] The plates were incubated at 37° C. for one to four hours, and the OD490 was determined. The OD reading of all wells was corrected for background by subtracting the reading of wells containing medium only. […] Kakadumycin A was tested against three human cancer cell lines (ATCC) and human primary mammary epithelial cells using the procedure described above for the munumbicins. Kadadumycin B was tested against one human cancer cell line.

[6] = system: Human Lung Cancer Epithelial A549; assay: as above; format: cell-based; conditions: 48 hours, Table 7
Method: as §1

[7] = system: Candida albicans ATCC 24433; assay: disk diffusion assay; format: cell-based; for diameter of the zone of inhibition, Candida albicans ATCC 24433: key: R = resistant
[8] = system: Candida albicans ATCC 90028; assay: disk diffusion assay; format: cell-based; for diameter of the zone of inhibition, Candida albicans ATCC 90028: key: R = resistant
[9] = system: Candida parasilosis ATCC 22019; assay: disk diffusion assay; format: cell-based, Candida parapsilosis; for diameter of the zone of inhibition, Candida parasilosis ATCC 22019: key: R = resistant
[10] = system: Candida tropicalis ATCC 750; assay: disk diffusion assay; format: cell-based; for diameter of the zone of inhibition, Candida tropicalis ATCC 750: key: R = resistant
[11] = system: Candida krusei ATCC 6258; assay: disk diffusion assay; format: cell-based
[12] = system: Candida glabrata ATCC 2001; assay: disk diffusion assay; format: cell-based; for diameter of the zone of inhibition, Candida glabrata ATCC 2001: key: R = resistant
[13] = system: Candida parasdosis ATCC 90018; assay: disk diffusion assay; format: cell-based, Candida parapsilosis; for diameter of the zone of inhibition, Candida parasdosis ATCC 90018: key: R = resistant
[14] = system: Cryptococcus neoformans ATCC 32045; assay: disk diffusion assay; format: cell-based; conditions: A3-5-1 10 micrograms; Flucytosine 10 micrograms; RPMI-glucose agar 35° C.
[15] = system: Saccharomyces cerevisiae ATCC 9763; assay: disk diffusion assay; format: cell-based; conditions: A3-5-1 10 micrograms; Flucytosine 10 micrograms; RPMI-glucose agar 35° C.
[16] = system: B. subtilis 1A757; assay: microbe, parasite or virus in culture; format: cell-based, Bacillus subtilis
[17] = system: M. tuberculosis H37Rv (ATCC 25618) (drug sensitive); assay: IC50 in Mycobacteria 7H11 agar; format: cell-based, Mycobacterium tuberculosis; conditions: Mycobacterium tuberculosis; 7H11 agar with 10% OADC
[18] = system: RNA synthesis in Bacillus subtilis; assay: macromolecular synthesis whole cell assay, [3H]uridine incorporation; format: cell-based; conditions: 1×MIC
[19] = system: Cell wall synthesis in Bacillus subtilis; assay: macromolecular synthesis whole cell assay, [3H]N-acetyl glucosamine incorporation; format: cell-based; conditions: 1×MIC
[20] = system: Enterococcus faecium ATCC 49624; assay: disk diffusion assay; format: cell-based; conditions: 10 micrograms per disk; ciprofloxacin 5, vancomycin 30 micrograms per disk; 35° C.
[21] = system: Enterococcus faecium ATCC 51559; assay: disk diffusion assay; format: cell-based; conditions: 10 micrograms per disk; ciprofloxacin 5, vancomycin 30 micrograms per disk; 35° C.
[22] = system: Pseudomonas aeruginosa ATCC 27853; assay: disk diffusion assay; format: cell-based; conditions: 10 micrograms per disk; ciprofloxacin 5, vancomycin 30 micrograms per disk; 35° C. Note: key: R = resistant.
[23] = system: Vibrio fischeri PIC 345; assay: disk diffusion assay; format: cell-based; conditions: 10 micrograms per disk; ciprofloxacin 5, vancomycin 30 micrograms per disk; 35° C.
[24] = system: Enterococcus faecalis ATCC 29212; assay: disk diffusion assay; format: cell-based; conditions: 10 micrograms per disk; ciprofloxacin 5, vancomycin 30 micrograms per disk; 35° C.
[25] = system: Enterococcus faecalis ATCC 51299; assay: disk diffusion assay; format: cell-based; conditions: 10 micrograms per disk; ciprofloxacin 5, vancomycin 30 micrograms per disk; 35° C.
[26] = system: Staphylococcus aureus ATCC 29213; assay: disk diffusion assay; format: cell-based; conditions: 10 micrograms per disk; ciprofloxacin 5, vancomycin 30 micrograms per disk; 35° C.
[27] = system: Acinetobacter sp. ATCC 49137; assay: disk diffusion assay; format: cell-based; conditions: 10 micrograms per disk; ciprofloxacin 5, vancomycin 30 micrograms per disk; grown at 30° C.
[28] = system: Neisseria gonnorhea ATCC 49226; assay: disk diffusion assay; format: cell-based; conditions: 10 micrograms per disk; ciprofloxacin 5, vancomycin 30 micrograms per disk; GC agar with 1% growth supplement with 5% CO2
[29] = system: Streptococcus pneumoniae ATCC 49619; assay: disk diffusion assay; format: cell-based; conditions: 10 micrograms per disk; ciprofloxacin 5, vancomycin 30 micrograms per disk; MHA with 5% dsb. and 5% CO2
[30] = system: Escherichia coli ATCC 25922; assay: disk diffusion assay; format: cell-based; conditions: 10 micrograms per disk; penicillin G 10 units per disk; 35° C. Note: key: R = resistant.
[31] = system: S. epidermis ATCC 12228; assay: disk diffusion assay; format: cell-based, Staphylococcus epidermidis; conditions: 10 micrograms per disk; 35° C.
[32] = system: S. maltophilia ATCC 13637; assay: disk diffusion assay; format: cell-based, Stenotrophomas maltophilia; conditions: 10 micrograms per disk; 35° C.
[33] = system: Shigella dysenteriae ATCC 11835; assay: disk diffusion assay; format: cell-based; conditions: 10 micrograms per disk; 35° C.
[34] = system: Geotrichum candidum; assay: microbroth dilution MIC, plant associated microorganisms; format: cell-based; conditions: PD broth, 48 hours at 23° C.
Method: (§2) Incubation was for 48 hours at 23° C. A plant pathogenic strain of Pseudomonas syringae was also tested using the same PD broth medium and with concentrations of colony forming units as given above. The organisms were obtained from the Montana State University plant pathogen culture collection administered by Dr. […] The relative activities against plant pathogenic fungi ranged from a few tenths of a microgram up to thirty micrograms. Table 2 provides the results of tests of inhibitory activity of the munumbicins against various plant-pathogenic fungi and one pathogenic bacterium. The data are reported as MIC values in micrograms/ml.

[35] = system: Phytophthora cinnamomi; assay: as above; format: cell-based; conditions: PD broth, 48 hours at 23° C.
Method: as §2

[36] = system: Pseudomonas syringae; assay: as above; format: cell-based; conditions: PD broth
Method: as §2

[37] = system: Pythium ultimum; assay: as above; format: cell-based; conditions: PD broth, 48 hours at 23° C.
Method: as §2

[38] = system: Rhizoctonia solani; assay: as above; format: cell-based; conditions: PD broth, 48 hours at 23° C.
Method: as §2

[39] = system: Sclerotinia sclerotiorum; assay: as above; format: cell-based; conditions: PD broth, 48 hours at 23° C.
Method: as §2

[40] = system: Human Breast Cancer Epithelial BT-20; assay: CellTiter 96 Aqueous Non-Radioactive Cell Proliferation Assay; format: cell-based; conditions: 96-144 hours; Table 7
Method: as §1

[41] = system: Human Primary Mammary Epithelial HMEC; assay: as above; format: cell-based; conditions: 48 hours; Table 7
Method: as §1

[42] = system: human red blood cells
[43] = system: brine shrimp; assay: brine shrimp assays; conditions: preliminary assays
[44] = system: Staphyloccus aureus MH II Eli Lilly Co.; assay: microbroth dilution MIC; conditions: drug sensitive strain
[45] = A3-5-1 10 micrograms, Flucytosine 10 micrograms, RPMI-glucose agar 35° C.

C[C@@H]1[C@H](O)[C@@H](C)/C=C/C=C/C=C/C=C/C=C/C=C/C=C/[C@H](O[C@@H]2O[C@H](C)[C@@H](O)[C@H](N)[C@@H]2O)C[C@@H]2O[C@](O)(C[C@@H](O)C[C@@H](O)[C@H](O)CC[C@@H](O)C[C@@H](O)CC(=O)O[C@H]1C)C[C@H](O)[C@H]2C(=O)O [Amphotericin B, reference compound]
MIC Cryptococcus neoformans [1]: 0.13 micrograms/ml
MIC Candida albicans [2]: 1.25 micrograms/ml
MIC Aspergillus fumigatus [3]: 0.62 micrograms/ml

CCN(CC)CCCC(C)Nc1ccnc2cc(Cl)ccc12 (stereo not drawn) [Chloroquine, reference compound]
IC50 ([4]; Plasmodium falciparum, Erythrocyte, read-out: IC50 Plasmodium falciparum): 7 ng/mL (≈ 0.0219 µM)
IC50 Plasmodium falciparum [4]: 7.0 ± 0 ng/mL (≈ 0.0219 µM)

CC[C@H]1OC(=O)[C@H](C)[C@@H](O[C@H]2C[C@@](C)(OC)[C@@H](O)[C@H](C)O2)[C@H](C)[C@@H](O[C@@H]2O[C@H](C)C[C@H](N(C)C)[C@H]2O)[C@](C)(O)C[C@@H](C)C(=O)[C@H](C)[C@@H](O)[C@]1(C)O [Erythromycin, reference compound]
IC50 ([5]; Homo sapiens, ME-180, read-out: IC50 Human Cervical Cancer Epithelial ME180): > 40000 ng/mL
IC50 ([6]; Homo sapiens, A549, read-out: IC50 Human Lung Cancer Epithelial A549): > 40000 ng/mL

Nc1[nH]c(=O)ncc1F [Flucytosine, reference compound]
Disk Diffusion, Candida albicans 24433 [7, 45]: 20 mm
Disk Diffusion, Candida albicans 90028 [8, 45]: 37 mm
Disk Diffusion, Candida parapsilosis 22019 [9, 45]: 46 mm
Disk Diffusion, Candida tropicalis 750 [10, 45]: 47 mm
Disk Diffusion, Candida krusei 6258 [11, 45]: 7 mm
Disk Diffusion, Candida glabrata 2001 [12, 45]: 53 mm
Disk Diffusion, Candida parapsilosis 90018 [13, 45]: 57 mm
Disk Diffusion, Cryptococcus neoformans 32045 [14]: 42 mm
Disk Diffusion, Saccharomyces cerevisiae 9763 [15]: 50 mm

CO[C@H]1/C=C/O[C@@]2(C)Oc3c(C)c(O)c4c(O)c(c(/C=N/N5CCN(C)CC5)c(O)c4c3C2=O)NC(=O)/C(C)=C\C=C\[C@H](C)[C@H](O)[C@@H](C)[C@@H](O)[C@@H](C)[C@H](OC(C)=O)[C@@H]1C [Rifampicin, reference compound]
1×MIC against Bacillus subtilis [16]: 0.25 micrograms/ml
IC50 [17]: < 1000 ng/mL
% [3H]uridine (RNA synthesis) incorporation of that of the untreated culture ([18]; 5 min): 13%
% [3H]uridine (RNA synthesis) incorporation of that of the untreated culture ([18]; 10 min): 15%
% [3H]N-acetyl glucosamine (Cell wall synthesis) incorporation of that of the untreated culture ([19]; 5 min): 47%
% [3H]N-acetyl glucosamine (Cell wall synthesis) incorporation of that of the untreated culture ([19]; 10 min): 48%

Penicillin
diameter of the zone of inhibition, Enterococcus faecium ATCC 49624 [20]: 21 mm
diameter of the zone of inhibition, Enterococcus faecium ATCC 51559 [21]: 0 mm

munumbicin D
diameter of the zone of inhibition, Pseudomonas aeruginosa ATCC 27853 [22]: R
diameter of the zone of inhibition, Vibrio fischeri PIC 345 [23]: 12 mm
diameter of the zone of inhibition, Enterococcus faecalis ATCC 29212 [24]: 16 mm
diameter of the zone of inhibition, Enterococcus faecalis ATCC 51299 [25]: 16 mm
diameter of the zone of inhibition, Staphylococcus aureus ATCC 29213 [26]: 13 mm
diameter of the zone of inhibition, Acinetobacter sp. ATCC 49137 [27]: R
diameter of the zone of inhibition, Neisseria gonnorhea ATCC 49226 [28]: 9 mm
diameter of the zone of inhibition, Streptococcus pneumoniae ATCC 49619 [29]: 16 mm
diameter of the zone of inhibition, Escherichia coli ATCC 25922 [30]: R
diameter of the zone of inhibition, S. epidermis ATCC 12228 [31]: 14 mm
diameter of the zone of inhibition, S. maltophilia ATCC 13637 [32]: R
diameter of the zone of inhibition, Shigella dysenteriae ATCC 11835 [33]: R
diameter of the zone of inhibition, Candida albicans ATCC 24433 ([7]; 10 micrograms per disk, 35° C.): R
diameter of the zone of inhibition, Candida albicans ATCC 90028 ([8]; 10 micrograms per disk, 35° C.): R
diameter of the zone of inhibition, Candida parasilosis ATCC 22019 ([9]; 10 micrograms per disk, 35° C.): R
diameter of the zone of inhibition, Candida tropicalis ATCC 750 ([10]; 10 micrograms per disk, 35° C.): R
diameter of the zone of inhibition, Candida krusei ATCC 6258 ([11]; 10 micrograms per disk, 35° C.): R
diameter of the zone of inhibition, Candida glabrata ATCC 2001 ([12]; 10 micrograms per disk, 35° C.): R
diameter of the zone of inhibition, Candida parasdosis ATCC 90018 ([13]; 10 micrograms per disk, 35° C.): R
MIC Geotrichum candidum [34]: 31.2 micrograms/ml
MIC Phytophthora cinnamomi [35]: 15.6 micrograms/ml
MIC Pseudomonas syringae [36]: 0.2 micrograms/ml
MIC Pythium ultimum [37]: 0.4 micrograms/ml
MIC Rhizoctonia solani [38]: 15.6 micrograms/ml
MIC Sclerotinia sclerotiorum [39]: 2.0 micrograms/ml
IC50 Human Breast Cancer Epithelial BT-20 [40]: 0.07 micrograms/ml
IC50 Human Cervical Cancer Epithelial ME180 [5]: 0.2 micrograms/ml
IC50 Human Lung Cancer Epithelial A549 [6]: 2.6 micrograms/ml
IC50 Human Primary Mammary Epithelial HMEC [41]: 0.425 micrograms/ml
concentration causing detectable lysis of human red blood cells [42]: > 80 micrograms/ml
LC50 brine shrimp [43]: 1.7 micrograms/ml
MIC Cryptococcus neoformans [1]: 10 micrograms/ml
MIC Candida albicans [2]: >10 micrograms/ml
MIC Aspergillus fumigatus [3]: 20 micrograms/ml
MIC Staphyloccus aureus MH II Eli Lilly Co. [44]: 0.4 micrograms/ml
IC50 Plasmodium falciparum [4]: 4.5 ± 0.7 ng/mL
